{"source": "ChEMBL document CHEMBL5465560", "about": "“Selectivity Literature for EUbOPEN Chemogenomic Library” (2024)", "key": {"[1]": {"target": "SRSF protein kinase 2 (Homo sapiens) (UniProt P78362)", "sequence (P78362 whole entry, looked up)": "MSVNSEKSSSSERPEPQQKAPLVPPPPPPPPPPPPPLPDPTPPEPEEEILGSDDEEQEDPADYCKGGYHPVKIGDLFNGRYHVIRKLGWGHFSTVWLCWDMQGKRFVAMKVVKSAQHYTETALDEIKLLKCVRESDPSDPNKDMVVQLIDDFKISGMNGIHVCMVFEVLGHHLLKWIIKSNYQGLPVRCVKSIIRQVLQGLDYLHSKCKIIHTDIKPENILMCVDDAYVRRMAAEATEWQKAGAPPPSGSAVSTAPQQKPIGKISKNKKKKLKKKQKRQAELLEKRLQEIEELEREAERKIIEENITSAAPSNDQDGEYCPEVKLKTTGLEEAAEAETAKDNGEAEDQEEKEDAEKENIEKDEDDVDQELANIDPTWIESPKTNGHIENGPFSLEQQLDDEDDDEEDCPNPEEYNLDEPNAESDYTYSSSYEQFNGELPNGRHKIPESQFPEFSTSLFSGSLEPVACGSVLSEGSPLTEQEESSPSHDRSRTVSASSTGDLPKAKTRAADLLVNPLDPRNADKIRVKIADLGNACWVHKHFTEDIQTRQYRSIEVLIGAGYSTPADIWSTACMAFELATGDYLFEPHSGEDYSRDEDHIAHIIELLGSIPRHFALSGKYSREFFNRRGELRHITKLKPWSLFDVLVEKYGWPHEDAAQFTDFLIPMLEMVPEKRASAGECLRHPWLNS", "assay": "Selectivity interaction (KinomeScan (DiscoverX)) EUB0000229b SRPK2", "conditions": "at 10 µM"}, "[2]": {"target": "Casein kinase II subunit alpha' (Homo sapiens) (UniProt P19784)", "sequence (P19784 whole entry, looked up)": "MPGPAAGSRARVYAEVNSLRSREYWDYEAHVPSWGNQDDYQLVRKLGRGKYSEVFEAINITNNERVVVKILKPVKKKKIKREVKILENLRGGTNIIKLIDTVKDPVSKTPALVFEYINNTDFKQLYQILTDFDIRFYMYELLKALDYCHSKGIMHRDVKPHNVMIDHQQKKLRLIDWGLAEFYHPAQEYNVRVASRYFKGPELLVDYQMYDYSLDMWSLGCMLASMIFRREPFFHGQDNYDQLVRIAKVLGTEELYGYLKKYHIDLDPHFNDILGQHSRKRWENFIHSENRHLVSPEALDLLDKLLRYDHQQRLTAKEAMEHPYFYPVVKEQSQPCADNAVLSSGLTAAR", "assay": "Selectivity interaction (ProQinase) EUB0000171b CSNK2A2"}, "[3]": {"target": "T1, STE20-related kinase adapter protein alpha (Homo sapiens) (UniProt Q7RTN6)", "T1 sequence (whole entry)": "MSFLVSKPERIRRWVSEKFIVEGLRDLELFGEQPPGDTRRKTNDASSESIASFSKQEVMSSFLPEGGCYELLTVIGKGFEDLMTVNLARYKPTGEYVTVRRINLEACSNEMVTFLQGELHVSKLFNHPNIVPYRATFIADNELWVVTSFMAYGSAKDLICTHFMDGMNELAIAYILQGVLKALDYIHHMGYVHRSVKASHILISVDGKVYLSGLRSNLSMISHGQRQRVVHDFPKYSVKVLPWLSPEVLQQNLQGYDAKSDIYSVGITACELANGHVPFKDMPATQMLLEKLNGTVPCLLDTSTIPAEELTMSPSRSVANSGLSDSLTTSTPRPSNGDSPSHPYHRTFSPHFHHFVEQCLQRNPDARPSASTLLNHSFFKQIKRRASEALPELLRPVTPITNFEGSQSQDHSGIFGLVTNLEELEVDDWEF", "assay": "Selectivity interaction (Kinase panel (KiNativ target engagement assay in Jurkat cells)) EUB0001635a STRADA", "format": "cell-based", "conditions": "Selectivity number of off-targets 0.0, Selectivity number of targets 233.0, Source Knowledge https://www.sciencedirect.com/science/article/pii/S2451945619300674?via%3Dihub, at 1 µM"}, "[4]": {"target": "T2, Cytoplasmic tyrosine-protein kinase BMX (Homo sapiens) (UniProt P51813)", "T2 sequence (whole entry)": "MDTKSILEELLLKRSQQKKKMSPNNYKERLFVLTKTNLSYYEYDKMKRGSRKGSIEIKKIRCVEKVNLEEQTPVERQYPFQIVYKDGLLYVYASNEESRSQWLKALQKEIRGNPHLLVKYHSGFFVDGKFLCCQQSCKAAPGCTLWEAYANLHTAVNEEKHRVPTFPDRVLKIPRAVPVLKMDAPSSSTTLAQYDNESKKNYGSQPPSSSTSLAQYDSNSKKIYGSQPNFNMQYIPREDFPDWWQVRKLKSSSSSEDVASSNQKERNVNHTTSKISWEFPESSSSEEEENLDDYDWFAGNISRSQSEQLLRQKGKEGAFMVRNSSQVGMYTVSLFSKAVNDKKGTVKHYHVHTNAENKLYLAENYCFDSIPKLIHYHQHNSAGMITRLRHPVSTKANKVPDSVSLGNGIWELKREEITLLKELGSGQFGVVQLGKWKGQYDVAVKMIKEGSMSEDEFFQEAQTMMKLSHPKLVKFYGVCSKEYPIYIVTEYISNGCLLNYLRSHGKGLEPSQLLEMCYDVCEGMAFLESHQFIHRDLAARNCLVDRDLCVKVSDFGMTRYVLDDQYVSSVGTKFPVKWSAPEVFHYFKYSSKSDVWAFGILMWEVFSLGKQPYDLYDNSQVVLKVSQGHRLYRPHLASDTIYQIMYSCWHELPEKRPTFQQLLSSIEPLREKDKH", "assay": "Selectivity interaction (KinaseProfiler screening (Millipore)) EUB0000601a BMX", "conditions": "at 3 µM"}, "[5]": {"target": "T3, Phosphatidylinositol 4,5-bisphosphate 3-kinase catalytic subunit delta isoform (Homo sapiens) (UniProt O00329)", "T3 sequence (whole entry)": "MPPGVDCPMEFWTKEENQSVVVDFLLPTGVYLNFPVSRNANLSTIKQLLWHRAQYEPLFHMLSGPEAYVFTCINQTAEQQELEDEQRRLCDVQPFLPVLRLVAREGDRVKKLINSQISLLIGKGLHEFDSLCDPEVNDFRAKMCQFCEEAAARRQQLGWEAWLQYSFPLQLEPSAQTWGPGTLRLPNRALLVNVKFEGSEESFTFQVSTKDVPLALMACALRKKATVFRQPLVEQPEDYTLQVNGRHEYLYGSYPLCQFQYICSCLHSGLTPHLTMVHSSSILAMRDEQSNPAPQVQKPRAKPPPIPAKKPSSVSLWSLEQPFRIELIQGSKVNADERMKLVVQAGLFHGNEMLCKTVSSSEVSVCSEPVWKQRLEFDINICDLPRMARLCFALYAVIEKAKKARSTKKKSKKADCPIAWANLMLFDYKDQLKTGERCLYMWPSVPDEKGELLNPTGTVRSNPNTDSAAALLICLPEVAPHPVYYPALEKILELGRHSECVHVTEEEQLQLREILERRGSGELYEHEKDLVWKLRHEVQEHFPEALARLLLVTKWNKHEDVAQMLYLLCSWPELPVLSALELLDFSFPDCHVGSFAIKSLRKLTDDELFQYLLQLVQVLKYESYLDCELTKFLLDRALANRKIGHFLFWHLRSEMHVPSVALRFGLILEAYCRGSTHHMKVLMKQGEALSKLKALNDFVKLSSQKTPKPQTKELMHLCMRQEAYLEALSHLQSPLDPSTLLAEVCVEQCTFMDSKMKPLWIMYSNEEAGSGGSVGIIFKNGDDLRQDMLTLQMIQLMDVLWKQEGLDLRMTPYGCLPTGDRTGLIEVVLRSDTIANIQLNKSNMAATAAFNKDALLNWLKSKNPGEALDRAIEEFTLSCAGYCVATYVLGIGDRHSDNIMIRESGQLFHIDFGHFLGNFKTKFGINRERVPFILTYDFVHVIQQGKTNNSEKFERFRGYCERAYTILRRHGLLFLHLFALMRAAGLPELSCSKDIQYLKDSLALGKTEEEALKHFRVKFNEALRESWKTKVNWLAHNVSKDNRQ", "assay": "Selectivity interaction (ActivX KiNativ screen (kinase selectivity in THP-1 cell lysates)) EUB0000639a PIK3CD", "format": "subcellular", "conditions": "lysate, at 0.01 µM"}, "[6]": {"target": "Mitogen-activated protein kinase kinase kinase 20 (Homo sapiens) (UniProt Q9NYL2)", "sequence (Q9NYL2 2-800 limits assumed)": "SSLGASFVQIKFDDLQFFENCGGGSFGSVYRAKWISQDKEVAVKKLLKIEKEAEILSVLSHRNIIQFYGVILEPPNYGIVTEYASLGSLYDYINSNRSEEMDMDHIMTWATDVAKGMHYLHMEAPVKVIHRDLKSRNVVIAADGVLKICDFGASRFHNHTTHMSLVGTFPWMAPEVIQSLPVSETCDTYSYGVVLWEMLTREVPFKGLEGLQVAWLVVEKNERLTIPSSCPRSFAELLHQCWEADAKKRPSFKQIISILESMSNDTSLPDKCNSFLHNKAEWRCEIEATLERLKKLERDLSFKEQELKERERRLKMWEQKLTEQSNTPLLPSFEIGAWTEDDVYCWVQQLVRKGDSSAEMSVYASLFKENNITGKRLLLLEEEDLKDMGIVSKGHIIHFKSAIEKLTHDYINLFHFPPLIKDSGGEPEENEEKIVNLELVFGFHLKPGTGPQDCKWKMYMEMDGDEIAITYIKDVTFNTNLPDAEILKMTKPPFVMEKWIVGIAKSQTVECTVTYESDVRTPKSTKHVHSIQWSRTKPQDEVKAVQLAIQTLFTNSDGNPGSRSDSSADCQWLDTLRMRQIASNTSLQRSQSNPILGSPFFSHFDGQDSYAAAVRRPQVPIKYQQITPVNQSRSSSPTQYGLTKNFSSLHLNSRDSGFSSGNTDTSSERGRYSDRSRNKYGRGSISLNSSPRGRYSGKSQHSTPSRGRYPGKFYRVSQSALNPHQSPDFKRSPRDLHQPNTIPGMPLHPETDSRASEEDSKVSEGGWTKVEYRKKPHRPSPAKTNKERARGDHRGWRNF", "assay": "Selectivity interaction (ActivX KiNativ screen (kinase selectivity in THP-1 cell lysates)) EUB0000639a MAP3K20", "format": "subcellular", "conditions": "lysate"}, "[7]": {"target": "aryl hydrocarbon receptor (AHR) (Homo sapiens, UniProt P35869)", "sequence (P35869 whole entry)": "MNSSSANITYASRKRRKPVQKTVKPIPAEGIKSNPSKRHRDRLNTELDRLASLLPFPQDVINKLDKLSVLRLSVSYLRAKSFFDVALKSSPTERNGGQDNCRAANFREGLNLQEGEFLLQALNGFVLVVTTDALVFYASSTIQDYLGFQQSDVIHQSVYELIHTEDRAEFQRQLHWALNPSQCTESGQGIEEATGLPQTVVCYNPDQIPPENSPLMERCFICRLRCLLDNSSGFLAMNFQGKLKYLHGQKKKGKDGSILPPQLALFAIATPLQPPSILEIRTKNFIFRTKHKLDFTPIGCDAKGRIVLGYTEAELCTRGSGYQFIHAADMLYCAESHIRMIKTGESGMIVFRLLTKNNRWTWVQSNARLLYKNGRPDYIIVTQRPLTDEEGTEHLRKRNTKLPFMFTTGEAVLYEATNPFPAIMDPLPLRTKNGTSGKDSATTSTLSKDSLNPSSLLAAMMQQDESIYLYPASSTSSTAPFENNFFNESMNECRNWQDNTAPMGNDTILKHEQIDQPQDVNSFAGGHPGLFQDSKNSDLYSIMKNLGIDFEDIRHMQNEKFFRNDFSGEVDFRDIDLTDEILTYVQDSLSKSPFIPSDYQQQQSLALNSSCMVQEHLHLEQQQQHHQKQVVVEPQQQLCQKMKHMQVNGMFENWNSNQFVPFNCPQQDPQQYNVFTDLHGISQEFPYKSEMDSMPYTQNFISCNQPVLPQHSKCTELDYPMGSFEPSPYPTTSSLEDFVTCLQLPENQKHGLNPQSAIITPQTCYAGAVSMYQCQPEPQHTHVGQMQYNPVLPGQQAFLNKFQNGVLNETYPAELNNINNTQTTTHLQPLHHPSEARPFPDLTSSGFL", "assay": "Selectivity interaction (Panel of kinases, GPCRs, ion channels and transporters (enzymatic assay)) EUB0000223bCl AHR"}, "[8]": {"target": "Protein kinase C delta type (Homo sapiens) (UniProt Q05655)", "sequence (Q05655 whole entry, looked up)": "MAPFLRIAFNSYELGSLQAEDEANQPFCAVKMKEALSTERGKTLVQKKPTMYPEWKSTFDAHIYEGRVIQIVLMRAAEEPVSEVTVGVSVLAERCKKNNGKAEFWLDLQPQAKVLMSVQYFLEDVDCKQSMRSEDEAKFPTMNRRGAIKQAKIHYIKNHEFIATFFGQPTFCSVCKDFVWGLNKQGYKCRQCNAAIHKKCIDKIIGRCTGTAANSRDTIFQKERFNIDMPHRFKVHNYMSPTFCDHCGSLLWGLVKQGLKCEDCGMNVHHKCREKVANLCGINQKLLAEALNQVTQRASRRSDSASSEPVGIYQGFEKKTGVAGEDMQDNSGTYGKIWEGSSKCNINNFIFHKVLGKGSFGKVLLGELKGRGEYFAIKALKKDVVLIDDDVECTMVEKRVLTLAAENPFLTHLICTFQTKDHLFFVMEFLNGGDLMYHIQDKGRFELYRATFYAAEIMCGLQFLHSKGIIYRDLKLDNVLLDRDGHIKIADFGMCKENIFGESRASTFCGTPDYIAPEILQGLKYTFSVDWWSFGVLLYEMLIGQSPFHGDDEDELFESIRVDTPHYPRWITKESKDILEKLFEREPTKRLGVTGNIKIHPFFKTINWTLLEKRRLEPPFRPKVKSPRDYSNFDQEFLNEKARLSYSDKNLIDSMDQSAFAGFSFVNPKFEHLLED", "assay": "Selectivity interaction (KinomeScan (DiscoverX)) EUB0000695a PRKCD", "conditions": "at 100 nM"}, "[9]": {"target": "Atypical kinase COQ8A, mitochondrial (Homo sapiens, UniProt Q8NI60)", "sequence (Q8NI60 163-647 limits assumed)": "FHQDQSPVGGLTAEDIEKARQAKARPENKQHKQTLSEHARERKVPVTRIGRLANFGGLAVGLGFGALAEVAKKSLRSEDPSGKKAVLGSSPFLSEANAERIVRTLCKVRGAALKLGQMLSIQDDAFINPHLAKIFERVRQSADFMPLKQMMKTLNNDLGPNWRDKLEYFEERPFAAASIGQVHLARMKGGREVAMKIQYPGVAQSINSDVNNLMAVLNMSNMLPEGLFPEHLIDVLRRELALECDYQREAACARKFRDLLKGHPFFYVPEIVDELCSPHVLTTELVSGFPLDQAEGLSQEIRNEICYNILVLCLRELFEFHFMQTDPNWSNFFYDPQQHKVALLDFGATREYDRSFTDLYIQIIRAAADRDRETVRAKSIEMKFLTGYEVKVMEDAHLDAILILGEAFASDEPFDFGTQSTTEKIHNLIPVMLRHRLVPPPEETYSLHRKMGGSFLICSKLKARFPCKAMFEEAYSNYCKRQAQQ", "assay": "Selectivity interaction (KinomeScan (DiscoverX)) EUB0000045b ADCK3"}, "[10]": {"target": "Tyrosine-protein kinase receptor UFO (Homo sapiens) (UniProt P30530)", "sequence (P30530 whole entry)": "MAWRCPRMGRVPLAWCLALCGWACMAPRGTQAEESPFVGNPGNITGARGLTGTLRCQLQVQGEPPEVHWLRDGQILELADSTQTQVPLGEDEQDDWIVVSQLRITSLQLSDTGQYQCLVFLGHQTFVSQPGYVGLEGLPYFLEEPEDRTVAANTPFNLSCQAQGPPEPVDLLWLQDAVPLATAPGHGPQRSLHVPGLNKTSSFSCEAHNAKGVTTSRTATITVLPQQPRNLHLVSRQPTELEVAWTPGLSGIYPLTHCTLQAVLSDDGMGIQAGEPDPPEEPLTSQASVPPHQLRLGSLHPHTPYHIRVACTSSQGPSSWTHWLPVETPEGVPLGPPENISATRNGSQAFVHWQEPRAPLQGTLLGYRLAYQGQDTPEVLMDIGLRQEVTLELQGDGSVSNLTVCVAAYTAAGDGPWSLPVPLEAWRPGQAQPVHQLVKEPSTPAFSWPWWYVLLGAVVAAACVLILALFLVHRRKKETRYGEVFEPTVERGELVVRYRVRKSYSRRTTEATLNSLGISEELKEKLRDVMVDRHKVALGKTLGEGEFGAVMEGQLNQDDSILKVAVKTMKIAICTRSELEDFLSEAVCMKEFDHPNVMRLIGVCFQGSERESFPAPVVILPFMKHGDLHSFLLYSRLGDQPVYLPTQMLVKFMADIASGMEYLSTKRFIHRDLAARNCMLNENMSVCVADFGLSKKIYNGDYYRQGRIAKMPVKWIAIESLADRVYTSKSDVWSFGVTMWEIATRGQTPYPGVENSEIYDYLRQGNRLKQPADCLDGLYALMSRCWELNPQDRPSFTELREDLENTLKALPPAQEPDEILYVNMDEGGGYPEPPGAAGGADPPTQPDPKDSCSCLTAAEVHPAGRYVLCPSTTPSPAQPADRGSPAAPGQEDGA", "assay": "Selectivity interaction (Ambit KINOMEscan and KiNATiv profiling in Jurkat cells) EUB0000090b AXL", "format": "cell-based", "conditions": "at 1 µM"}}, "data": [{"smiles": "COc1cc(N(C)c2ccnc3ccc(C(F)(F)F)cc23)cc(OC)c1OC", "values": [{"measurement": "% binding", "setting": "[1]", "result": 94, "unit": "%"}]}, {"smiles": "C=CC(=O)Nc1cccc(C(=O)Nc2ccc(Nc3cc(-c4[nH]c(SC)nc4C)ccn3)cc2)c1", "values": [{"measurement": "% of control", "setting": "[2]; at 1 µM", "result": 80, "unit": "%"}, {"measurement": "% of control", "setting": "[2]; at 5 µM", "result": 52, "unit": "%"}]}, {"smiles": "C=CC(=O)Nc1ccc(C(=O)Nc2[nH]nc3c2CN(C(=O)N[C@H](CN(C)C)c2ccccc2)C3(C)C)cc1", "values": [{"measurement": "% of engagement", "setting": "[3]", "result": 2.1, "unit": "%"}]}, {"smiles": "CCc1cc(Nc2nccc(-c3c(-c4ccc(OC)c(C(=O)Nc5c(F)cccc5F)c4)nc4ccccn34)n2)c(OC)cc1N1CCC(N2CCN(S(C)(=O)=O)CC2)CC1", "values": [{"measurement": "% of inhibition", "setting": "[4]", "result": 71, "unit": "%"}]}, {"smiles": "CC[C@@H]1[C@H](F)C(=O)N[C@@H]1COc1nccc2cc(C(N)=O)c(OC)cc12", "note": "[ZIMLOVISERTIB]", "values": [{"measurement": "% of inhibition", "setting": "[5]", "result": -9.6, "unit": "%"}, {"measurement": "% of inhibition", "setting": "[6]; at 0.01 µM", "result": -7.8, "unit": "%"}, {"measurement": "% of inhibition", "setting": "[6]; at 0.04 µM", "result": -3.3, "unit": "%"}, {"measurement": "% of inhibition", "setting": "[6]; at 0.2 µM", "result": 9.5, "unit": "%"}, {"measurement": "% of inhibition", "setting": "[6]; at 1 µM", "result": 12.2, "unit": "%"}, {"measurement": "% of inhibition", "setting": "[6]; at 5 µM", "result": -6.6, "unit": "%"}]}, {"smiles": "COc1cc(C(=O)N2CC[C@@H](O)[C@@H](N)C2)cc2nc(-c3cc4ccccc4n3CC3CC3)n(C)c12", "values": [{"measurement": "XC50", "setting": "[7]", "result": 79.4, "unit": "µM"}]}, {"smiles": "Cc1cc(F)c(C(=O)Nc2cccc(-c3nncn3C(C)C)n2)cc1-n1cnc(C2CC2)c1", "values": [{"measurement": "% of control", "setting": "[8]", "result": 100, "unit": "%"}]}, {"smiles": "C=CC(=O)Nc1cc(-n2c(=O)ccc3cnc4ccc(-c5ccc(NS(C)(=O)=O)cc5)cc4c32)ccc1C", "values": [{"measurement": "% of control", "setting": "[9]; at 1 µM", "result": 100, "unit": "%"}, {"measurement": "% of control", "setting": "[9]; at 10 µM", "result": 82, "unit": "%"}]}, {"smiles": "CN(C)C/C=C/C(=O)Nc1ccc(C(=O)N2CCCC(Nc3ncc(Cl)c(-c4c[nH]c5ccccc45)n3)C2)cc1", "note": "(stereo unspecified)", "values": [{"measurement": "% of control", "setting": "[10]", "result": 92, "unit": "%"}]}]}
